SMILES strings stand for the structures.

The target in one experiment is T1, human P2X2/3 receptor (Homo sapiens, UniProt P56373+Q9UBL9).
T1 construct: expressed in transfected cells; host or cells: CHO-K1
T1 sequence (Q9UBL9 1-471): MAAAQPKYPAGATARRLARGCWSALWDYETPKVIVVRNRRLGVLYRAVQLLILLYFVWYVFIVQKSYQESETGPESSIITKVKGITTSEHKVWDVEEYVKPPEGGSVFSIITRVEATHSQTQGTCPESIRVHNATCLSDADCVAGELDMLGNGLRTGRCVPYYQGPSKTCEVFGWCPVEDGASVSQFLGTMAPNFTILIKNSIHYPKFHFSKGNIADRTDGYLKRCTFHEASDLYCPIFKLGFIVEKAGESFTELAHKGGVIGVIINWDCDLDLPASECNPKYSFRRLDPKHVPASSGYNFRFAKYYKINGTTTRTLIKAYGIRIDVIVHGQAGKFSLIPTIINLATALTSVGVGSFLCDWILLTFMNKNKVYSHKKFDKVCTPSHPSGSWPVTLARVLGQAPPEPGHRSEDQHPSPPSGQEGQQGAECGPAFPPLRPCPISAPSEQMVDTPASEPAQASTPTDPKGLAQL
T1 sequence (P56373 1-397): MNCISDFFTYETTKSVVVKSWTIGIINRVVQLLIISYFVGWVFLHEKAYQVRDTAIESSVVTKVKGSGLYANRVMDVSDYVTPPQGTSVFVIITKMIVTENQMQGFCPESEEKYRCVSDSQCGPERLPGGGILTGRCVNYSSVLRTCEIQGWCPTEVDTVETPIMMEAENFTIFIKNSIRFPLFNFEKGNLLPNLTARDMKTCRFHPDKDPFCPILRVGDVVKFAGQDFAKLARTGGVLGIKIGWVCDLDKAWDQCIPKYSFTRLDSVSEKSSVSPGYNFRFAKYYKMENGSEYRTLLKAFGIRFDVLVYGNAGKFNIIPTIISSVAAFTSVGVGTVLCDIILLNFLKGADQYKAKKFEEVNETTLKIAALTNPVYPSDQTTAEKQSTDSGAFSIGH
Put plainly: P2X2/3 FLIPR (Fluorometric Imaging Plate Reader) assay. Format: cell-based. The settings on record: CHO-K1 cells transfected with human P2X2/3; agonist α,β-meATP 5 μM; Fluo-3 calcium fluorescence. The method, then: (§1) CHO-Kl cells were transfected with cloned rat P2X3 or human P2X2/3 receptor subunits and passaged in flasks. 18-24 hours before the FLIPR experiment, cells were released from their flasks, centrifuged, and resuspended in nutrient medium at 2.5×10^5 cells/ml. The cells were aliquoted into black-walled 96-well plates at a density of 50,000 cells/well and incubated overnight in 5% CO2 at 37° C. On the day of the experiment, cells were washed in FLIPR buffer (calcium- and magnesium-free Hank's balanced salt solution, 10 mM HEPES, 2 mM CaCl2, 2.5 mM probenecid; FB). Each well received 100 μl FB and 100 μl of the fluorescent dye Fluo-3 AM [2 μM final conc.]. […]
(§2) Test compounds (dissolved in DMSO at 10 mM and serially diluted with FB) or vehicle were added to each well (25 μl of a 4× solution) and allowed to equilibrate for 20 minutes at room temperature. The plates were then placed in the FLIPR and a baseline fluorescence measurement (excitation at 488 nm and emission at 510-570 nm) was obtained for 10 seconds before a 100 μl/well agonist or vehicle addition. […] Fluorescence was measured for an additional 2 minutes at 1 second intervals after agonist addition. A final addition of ionomycin (5 μM, final concentration) was made to each well of the FLIPR test plate to establish cell viability and maximum fluorescence of dye-bound cytosolic calcium. […]

The next experiment deals with T2, rat P2X3 receptor (Rattus norvegicus, UniProt P49654).
T2 construct: expressed in transfected cells; host or cells: CHO-K1
T2 sequence (P49654 1-397): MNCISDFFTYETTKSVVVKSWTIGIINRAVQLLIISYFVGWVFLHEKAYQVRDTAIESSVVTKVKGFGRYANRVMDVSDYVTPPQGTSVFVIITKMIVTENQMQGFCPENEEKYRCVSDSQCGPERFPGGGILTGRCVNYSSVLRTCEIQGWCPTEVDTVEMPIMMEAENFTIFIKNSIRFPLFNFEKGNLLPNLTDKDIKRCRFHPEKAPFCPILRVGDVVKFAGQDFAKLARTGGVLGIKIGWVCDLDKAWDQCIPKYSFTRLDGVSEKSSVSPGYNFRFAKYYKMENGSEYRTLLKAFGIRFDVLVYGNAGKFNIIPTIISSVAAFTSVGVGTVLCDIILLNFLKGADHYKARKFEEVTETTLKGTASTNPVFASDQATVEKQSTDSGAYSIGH
The experiment can be described thus: P2X3 FLIPR (Fluorometric Imaging Plate Reader) assay. Format: cell-based. The settings on record: CHO-K1 cells transfected with cloned rat P2X3; agonist α,β-meATP 1 μM; Fluo-3 calcium fluorescence. The method, then:
as §1, §2

Take `Cc1ccc(-c2cc(C(=O)N[C@H](C)CN3CCOCC3)cc(-c3scnc3C)c2)cc1` [Compound 43, (R)-4′-Methyl-5-(4-methyl-thiazol-5-yl)-biphenyl-3-carboxylic acid (1-methyl-2-morpholin-4-yl-ethyl)-amide]: the “pKi for the P2X2/3 receptor” value at human P2X2/3 receptor is reported as “approximately 7.30”.
Regarding `Cc1ccc(-c2cc(C(=O)N[C@@H](C)CO)cc(-c3scnc3C)c2)cc1` [Compound 45, (S)-4′-Methyl-5-(4-methyl-thiazol-5-yl)-biphenyl-3-carboxylic acid (2-hydroxy-1-methyl-ethyl)-amide], on rat P2X3 receptor, the “pIC50 for the P2X3 receptor” value was “approximately 8.24”.

(Values after patent US9849136B2, “Thiazole and oxazole-substituted arylamides as P2X3 and P2X2/3 antagonists” (Roche Palo Alto LLC, priority 2006, dated 2017).)
